Reference: patent US20240409573A1, “CALICHEAMICIN DERIVATIVES AND ANTIBODY DRUG CONJUGATES THEREOF” (priority 2017, published 2024)

How the values were obtained:
Type in all cases: cell-based
[1] = tested on: N87 (gastric cancer) cells, Her2-target expressing; assay: In vitro cell assay, cell viability by MTS, N87; settings: 96 h, read-out: Average IC50, N87
Experimental: (§1) Her2-Target expressing (BT474 (breast cancer), N87 (gastric cancer), MDA-MB-361-DYT2 (breast cancer)) or Her2-non-expressing (MDA-MB-468, HT29) cells, or 0033-target expressing HL60, HEL92.1.7, NB4, TF-1 or 0033-non-expressing (Raji) cells were seeded in 96-well cell culture plates for 24 hours before treatment. Cells were treated with 3-fold serially diluted antibody-drug conjugates or free compounds (i.e., no antibody conjugated to the drug) in duplicate at 10 concentrations. Cell viability was determined by CellTiter 96® AQueous One Solution Cell Proliferation MTS Assay (Promega, Madison WI) 96 hours after treatment. Relative cell viability was determined as percentage of untreated control. IC50 values were calculated using a four parameter logistic model #203 with XLfit v4.2 (IDBS, Guildford, Surry, UK). Results are shown below in Table 3 (for payloads), Table 4 (for Herceptin conjugates), and Table 5 (for CD33 conjugates).

[2] = tested on: MDA-MB-361-DYT2 (breast cancer) cells, Her2-target expressing; assay: In vitro cell assay, cell viability by MTS, MDA-MB-361-DYT2; settings: 96 h, read-out: Average IC50, MDA-MB-361-DYT2
Experimental: as §1

[3] = tested on: HT29 cells, Her2-non-expressing; assay: In vitro cell assay, cell viability by MTS, HT29; settings: Homo sapiens, HT-29, 96 h, read-out: Average IC50, HT29
Experimental: as §1

[4] = tested on: HL60 cells, CD33-target expressing; assay: In vitro cell assay, cell viability by MTS, HL60; settings: Homo sapiens, HL-60, 96 h, read-out: Average IC50, HL-60
Experimental: as §1

[5] = tested on: HEL92.1.7 cells, CD33-target expressing; assay: In vitro cell assay, cell viability by MTS, HEL92.1.7; settings: Homo sapiens, HEL 92.1.7, 96 h, read-out: Average IC50, HEL92.1.7
Experimental: as §1

[6] = tested on: NB4 cells, CD33-target expressing; assay: In vitro cell assay, cell viability by MTS, NB4; settings: Homo sapiens, NB-4, 96 h, read-out: Average IC50, NB4
Experimental: as §1

[7] = tested on: TF-1 cells, CD33-target expressing; assay: In vitro cell assay, cell viability by MTS, TF-1; settings: Homo sapiens, TF-1, 96 h, read-out: Average IC50, TF-1
Experimental: as §1

[8] = tested on: Raji cells, CD33-non-expressing; assay: In vitro cell assay, cell viability by MTS, Raji; settings: Homo sapiens, 96 h, read-out: Average IC50, Raji
Experimental: as §1

Row | SMILES | IC50 [1] | IC50 [2] | IC50 [3] | IC50 [4] | IC50 [5] | IC50 [6] | IC50 [7] | IC50 [8]
1 | CCN[C@H]1CO[C@@H](O[C@@H]2C(O)[C@H](NO[C@H]3C[C@H](O)[C@H](SC(=O)c4c(C)c(I)c(O[C@@H]5O[C@@H](C)[C@H](O)[C@@H](OC)[C@H]5O)c(OC)c4OC)[C@@H](C)O3)[C@@H](C)O[C@H]2O[C@H]2C#C/C=C\C#C[C@]3(O)CC(=O)C(NC(=O)OC)=C2/C3=C\CSSC(C)(C)CCC(=O)NCCCC[C@H](N)C(=O)O)C[C@@H]1OC (stereo in doubt) [Example P43] | 1.23 nM | 6.4 nM | 3.18 nM | 1.36 nM | 4.9 nM | 0.516 nM | 9.01 nM | 2.85 nM
2 | CCN[C@H]1CO[C@@H](O[C@@H]2C(O)[C@H](NO[C@H]3C[C@H](O)[C@H](SC(=O)c4c(C)c(I)c(O[C@@H]5O[C@@H](C)[C@H](O)[C@@H](OC)[C@H]5O)c(OC)c4OC)[C@@H](C)O3)[C@@H](C)O[C@H]2O[C@H]2C#C/C=C\C#C[C@]3(O)CC(=O)C(NC(=O)OC)=C2/C3=C\CSSc2ncccc2C(=O)O)C[C@@H]1OC (stereo in doubt) [Example P46] | 0.544 nM | 2.83 nM | 0.77 nM | 0.025 nM | 0.046 nM | 0.02 nM | 0.176 nM | 0.039 nM
3 | CCN[C@H]1CO[C@@H](O[C@@H]2C(O)[C@H](NO[C@H]3C[C@H](O)[C@H](SC(=O)c4c(C)c(I)c(O[C@@H]5O[C@@H](C)[C@H](O)[C@@H](OC)[C@H]5O)c(OC)c4OC)[C@@H](C)O3)[C@@H](C)O[C@H]2O[C@H]2C#C/C=C\C#C[C@]3(O)CC(=O)C(NC(=O)OC)=C2/C3=C\CSS[C@H](C)CO)C[C@@H]1OC (stereo in doubt) [Example P47] | 1.87 nM | 6.54 nM | 1.4 nM | 0.054 nM | 0.141 nM | 0.04 nM | 0.737 nM | 0.05 nM
4 | CCN[C@H]1CO[C@@H](O[C@H]2[C@H](O[C@H]3C#C/C=C\C#C[C@]4(O)CC(=O)C(NC(=O)OC)=C3/C4=C\CSSC(C)C)O[C@H](C)[C@@H](NO[C@H]3C[C@H](O)[C@H](SC(=O)c4c(C)c(I)c(O[C@@H]5O[C@@H](C)[C@H](O)[C@@H](OC)[C@H]5O)c(OC)c4OC)[C@@H](C)O3)[C@@H]2O)C[C@@H]1OC [Example P1] | 0.007 nM | 0.021 nM | 0.003 nM | 0.003 nM | 0.028 nM | 0.003 nM | 0.071 nM | 0.006 nM
5 | CCN[C@H]1CO[C@@H](O[C@H]2[C@H](O[C@H]3C#C/C=C\C#C[C@]4(O)CC(=O)C(NC(=O)OC)=C3/C4=C\CSSc3ccccc3C(=O)O)O[C@H](C)[C@@H](NO[C@H]3C[C@H](O)[C@H](SC(=O)c4c(C)c(I)c(O[C@@H]5O[C@@H](C)[C@H](O)[C@@H](OC)[C@H]5O)c(OC)c4OC)[C@@H](C)O3)[C@@H]2O)C[C@@H]1OC [Example P3] | 0.309 nM | 1.75 nM | 0.69 nM | 0.149 nM | 0.371 nM | 0.081 nM | 1.64 nM | 0.378 nM
6 | CCN[C@H]1CO[C@@H](O[C@H]2[C@H](O[C@H]3C#C/C=C\C#C[C@]4(O)CC(=O)C(NC(=O)OC)=C3/C4=C\CSSc3ccccn3)O[C@H](C)[C@@H](NO[C@H]3C[C@H](O)[C@H](SC(=O)c4c(C)c(I)c(O[C@@H]5O[C@@H](C)[C@H](O)[C@@H](OC)[C@H]5O)c(OC)c4OC)[C@@H](C)O3)[C@@H]2O)C[C@@H]1OC [Example P4] | 0.086 nM | 0.033 nM | 0.094 nM | 0.017 nM | 0.036 nM | 0.011 nM | 0.184 nM | 0.056 nM
7 | CCN[C@H]1CO[C@@H](O[C@H]2[C@H](O[C@H]3C#C/C=C\C#C[C@]4(O)CC(=O)C(NC(=O)OC)=C3/C4=C\CSSC(CC(=O)O)C(=O)O)O[C@H](C)[C@@H](NO[C@H]3C[C@H](O)[C@H](SC(=O)c4c(C)c(I)c(O[C@@H]5O[C@@H](C)[C@H](O)[C@@H](OC)[C@H]5O)c(OC)c4OC)[C@@H](C)O3)[C@@H]2O)C[C@@H]1OC (stereo partly shown) [Example P6] | 1.24 nM | 1.35 nM | 1.14 nM | 0.568 nM |  | 0.492 nM | 5.93 nM | 1.21 nM
8 | CCN[C@H]1CO[C@@H](O[C@H]2[C@H](O[C@H]3C#C/C=C\C#C[C@]4(O)CC(=O)C(NC(=O)OC)=C3/C4=C\CSSC(C)(C)CC(N)=O)O[C@H](C)[C@@H](NO[C@H]3C[C@H](O)[C@H](SC(=O)c4c(C)c(I)c(O[C@@H]5O[C@@H](C)[C@H](O)[C@@H](OC)[C@H]5O)c(OC)c4OC)[C@@H](C)O3)[C@@H]2O)C[C@@H]1OC [Example P30] | 0.308 nM | 0.049 nM | 0.057 nM | 0.049 nM |  |  | 0.112 nM | 0.03 nM
9 | CCN[C@H]1CO[C@@H](O[C@H]2[C@H](O[C@H]3C#C/C=C\C#C[C@]4(O)CC(=O)C(NC(=O)OC)=C3/C4=C\CSSC(C)(C)CC(=O)N(C)C)O[C@H](C)[C@@H](NO[C@H]3C[C@H](O)[C@H](SC(=O)c4c(C)c(I)c(O[C@@H]5O[C@@H](C)[C@H](O)[C@@H](OC)[C@H]5O)c(OC)c4OC)[C@@H](C)O3)[C@@H]2O)C[C@@H]1OC [Example P31] | 0.051 nM | 0.032 nM | 0.01 nM | 0.011 nM |  |  | 0.084 nM | 0.008 nM
10 | CCN[C@H]1CO[C@@H](O[C@H]2[C@H](O[C@H]3C#C/C=C\C#C[C@]4(O)CC(=O)C(NC(=O)OC)=C3/C4=C\CSSC(C)(C)CC(=O)O)O[C@H](C)[C@@H](NO[C@H]3C[C@H](O)[C@H](SC(=O)c4c(C)c(I)c(O[C@@H]5O[C@@H](C)[C@H](O)[C@@H](OC)[C@H]5O)c(OC)c4OC)[C@@H](C)O3)[C@@H]2O)C[C@@H]1OC [Example P32] | 0.015 nM | 0.013 nM | 0.004 nM | 0.003 nM |  |  | 0.038 nM | 0.004 nM
11 | CCN[C@H]1CO[C@@H](O[C@H]2[C@H](O[C@H]3C#C/C=C\C#C[C@]4(O)CC(=O)C(NC(=O)OC)=C3/C4=C\CSSC(C)(C)[C@H](N)C(=O)O)O[C@H](C)[C@@H](NO[C@H]3C[C@H](O)[C@H](SC(=O)c4c(C)c(I)c(O[C@@H]5O[C@@H](C)[C@H](O)[C@@H](OC)[C@H]5O)c(OC)c4OC)[C@@H](C)O3)[C@@H]2O)C[C@@H]1OC [Example P33] | 1.66 nM | 1.5 nM | 0.386 nM | 0.205 nM |  |  | 1.09 nM | 0.261 nM
12 | CCN[C@H]1CO[C@@H](O[C@H]2[C@H](O[C@H]3C#C/C=C\C#C[C@]4(O)CC(=O)C(NC(=O)OC)=C3/C4=C\CSSC(C)(C)CCNC(=O)[C@H](CCCNC(N)=O)NC(=O)[C@@H](NC(C)=O)C(C)C)O[C@H](C)[C@@H](NO[C@H]3C[C@H](O)[C@H](SC(=O)c4c(C)c(I)c(O[C@@H]5O[C@@H](C)[C@H](O)[C@@H](OC)[C@H]5O)c(OC)c4OC)[C@@H](C)O3)[C@@H]2O)C[C@@H]1OC [Example P35] | 14.7 nM | 2.34 nM | 3.67 nM | 2.25 nM |  |  | 7.5 nM | 2.1 nM
13 | CCN[C@H]1CO[C@@H](O[C@H]2[C@H](O[C@H]3C#C/C=C\C#C[C@]4(O)CC(=O)C(NC(=O)OC)=C3/C4=C\CSSC(C)(C)CNCCOc3ccccc3)O[C@H](C)[C@@H](NO[C@H]3C[C@H](O)[C@H](SC(=O)c4c(C)c(I)c(O[C@@H]5O[C@@H](C)[C@H](O)[C@@H](OC)[C@H]5O)c(OC)c4OC)[C@@H](C)O3)[C@@H]2O)C[C@@H]1OC [Example P36] | 6.2 nM | 3.85 nM | 1.28 nM | 0.881 nM |  |  | 6.86 nM | 1.13 nM
14 | CCN(C(=O)Nc1ccc(CNC(=O)OCC2c3ccccc3-c3ccccc32)cc1)[C@H]1CO[C@@H](O[C@H]2[C@H](O[C@H]3C#C/C=C\C#C[C@]4(O)CC(=O)C(NC(=O)OC)=C3/C4=C\CSSC(C)(C)C)O[C@H](C)[C@@H](NO[C@H]3C[C@H](O)[C@H](SC(=O)c4c(C)c(I)c(O[C@@H]5O[C@@H](C)[C@H](O)[C@@H](OC)[C@H]5O)c(OC)c4OC)[C@@H](C)O3)[C@@H]2O)C[C@@H]1OC [Example P49] | 0.007 nM | < 0.1 nM | 0.006 nM | 0.003 nM |  |  | 0.051 nM | 0.002 nM
